How the values were obtained:
Assay type in all cases: cell-based, human
[1] = tested on: BT-474 cells; experiment: Flow cytometry cell cycle analysis
[2] = tested on: MCF-7 cells; experiment: Confocal microscopy intracellular distribution, MCF-7; details: MCF-7, 30 min, 4 h, 24 h incubation
[3] = tested on: SKBR-3 cells; experiment: Confocal microscopy intracellular distribution, SKBR-3; details: SKBR-3, 5 μM, 30 min, 37 °C

With N=C(N)NCCC[C@H](N)C(=O)N[C@@H](CC(=O)N[C@@H](Cc1ccccc1)C(=O)O)c1cccc2ccccc12 [Compound 5, Arg-aminonaphthylpropionic acid-Phe] the “effect on cell cycle inhibition” value [1] was “no significant effect on cell cycle inhibition”.
In the case of COc1cccc2c1C(=O)c1c(O)c3c(c(O)c1C2=O)C[C@@](O)(C(=O)CO)C[C@@H]3O[C@H]1C[C@H](N)[C@H](O)[C@H](C)O1 [DOX, Doxorubicin], the “DOX fluorescence in cells” value [2] is reported as “fluorescence was seen in 30 min” and the “DOX fluorescence distribution in cells” value [3] is reported as “strong DOX fluorescence in both the nucleus and cytoplasm”.

— paper PMC5148673 (European journal of medicinal chemistry, 2016)
